Measurements from patent publication US10729688B2, “Hepatitis B antiviral agents” (Enanta Pharmaceuticals, Inc., priority 2018, dated 2020).

Legend:
HBV = assay: HepAD38 antiviral assay: reduction of viral product accumulation; assay type: cell-based; conditions: Hepatitis B virus, 120 h; HepAD38 cells, tetracycline removed; harvest five days after compound addition; viral product (virion DNA by qPCR, or HBsAg/HBeAg by ELISA) reduced by 50% relative to no drug controls
Experimental: (§1) Methods: HepAD38 cells were maintained as previously reported (Ladner et al, Antimicrob. Agents Chemother. 1997, 4, 1715). Briefly, cells were passaged upon attaining confluency in DMEM/F12 media in the presence of 10% FBS, Penn/Strep, 250 μg/mL G418, and 1 ug/ml tetracycline. Compounds were screened by first washing cells three times with PBS to remove tetracycline, and plating in 96 well plates at 35,000 cells/well. Compounds dissolved in DMSO were then diluted 1:200 into wells containing cells. Five days after compound addition, material was harvested for analysis. For an extended 8 day analysis, cells were plated and treated as described above, but media and compound were refreshed on day 2 and day 5 post initial treatment.
On harvest day, virion DNA was obtained by lysing with Sidestep Lysis and Stabilization Buffer and then quantified via quantitative real time PCR. Commercially available ELISA kits were used to quantitate the viral proteins HBsAg (Alpco) or HbeAg (US Biological) by following the manufacturer's recommended protocol after diluting samples to match the linear range of their respective assays. Irrespective of readout, compound concentrations that reduce viral product accumulation in the cell lysates or supernatants by 50% relative to no drug controls (EC50) are reported; EC50 ranges are as follows: A<0.1 μM; B 0.1-0.2 μM; C>0.2 μM.

[1] = Compound toxicity, ATPLite total ATP levels; assay type: cell-based; conditions: human, HepAD38 cells; 15,000 cells/well; three days after compound addition; total ATP levels reduced by 50% relative to no drug controls
Experimental: as §1
Compound toxicity was evaluated by seeding cells at 15,000 cells/well and treating with compound as described above.

SMILES: O=C(Nc1cc(F)c(F)c(F)c1)N1Cc2c(N3C(=O)O[C@@H]4CCCC[C@@H]43)cnn2[C@@H]2CCC[C@@H]21 [Example 53]
- EC50 (HBV): < 0.1 µM
- CC50 at 3 days [1]: > 25 µM
